Measurements: patent US20260250325A1, “Antiviral Polypeptide Membrane Fusion Inhibitor, and Preparation Method and Application Thereof” (priority 2025, published 2026)
Read-outs that look alike come from different tables or passages of the source. Where a SMILES comes first, the peptide text is derived from it. The star is where a group is joined. X1 = CC(C)CCCC(C)C1CCC2C3CC=C4CC(OC(=O)CCC(=O)*)CCC4(C)C3CCC12C

Legend:
[1] = Cytotoxicity test in HEp-2 cells (CCK8 cell viability); assay type: cell-based; details: human
Summary of the method: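 Compound dilutions (final DMSO 0.5%) were applied for 1 day to HEp-2 cells plated at 30,000 per well the day before. CCK8 signal gave survival relative to cell and medium controls, and a four-parameter log(inhibitor)-response fit yielded CC50.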

RSV A long virus strain = assay type: cell-based
Summary of the method: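 Plaque reduction in HEp-2 cells: virus (100 PFU/well) and serially diluted compound (8 concentrations) mixed 1 h, adsorbed 2 h, then overlaid with 0.8% CMC medium plus compound for 1 day at 37 °C. Spots counted after anti-RSV immunostaining; IC50 from normalized inhibition, CC50 from viability data.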

[2] = HEp-2 cells, CCK8, 1 day, read-out: CC50
[3] = RSV A long virus strain, HEp-2 cells, plaque reduction, 1 day, read-out: IC50

Row | Compound | CC50 at 1 day [1, 2] | IC50 (RSV A long virus strain; [3]) | CC50 at 1 day [1] | IC50 (RSV A long virus strain)
1 | CC[C@H](C)[C@H](NC(=O)[C@H](CO)NC(=O)[C@H](C)NC(=O)[C@H](CC(=O)O)NC(=O)[C@H](Cc1ccccc1)NC(C)=O)C(=O)N[C@@H](CCC(=O)O)C(=O)N[C@@H](CCC(=O)O)C(=O)N[C@H](C(=O)N[C@@H](CC(N)=O)C(=O)N[C@@H](CCCNC(=N)N)C(=O)N[C@@H](CCCNC(=N)N)C(=O)N[C@H](C(=O)N[C@@H](CCC(=O)O)C(=O)N[C@@H](CCC(=O)O)C(=O)N[C@@H](CO)C(=O)N[C@@H](CC(C)C)C(=O)N[C@@H](CCCNC(=N)N)C(=O)N[C@@H](CCCNC(=N)N)C(=O)N[C@H](C(=O)N[C@@H](CCC(=O)O)C(=O)N[C@@H](CCC(=O)O)C(=O)N[C@@H](CO)C(=O)N[C@@H](CC(=O)O)C(=O)N[C@@H](CCCNC(=N)N)C(=O)N[C@@H](CCCNC(=N)N)C(=O)N[C@@H](CC(C)C)C(=O)N[C@@H](CCC(=O)O)C(=O)N[C@@H](C)C(=O)N[C@@H](C)C(=O)N[C@@H](C)C(=O)N[C@@H](CCCCN)C(=O)N[C@@H](CCCCNC(=O)CCC(=O)OC1CCC2(C)C(=CCC3C2CCC2(C)C(C(C)CCCC(C)C)CCC32)C1)C(N)=O)[C@@H](C)CC)[C@@H](C)CC)C(C)C (stereo partly drawn) [Compound 19] (Ac-FDASIEEVNRRIEESLRRIEESDRRLEAAAKK(X1)-NH2) | 8.3 µM | 0.0162 µM | – | –
2 | Ac-SLEQVNKINEKINKISQSLKKIEESDKKSDEVNAGLEAAAKK-NH2 [Compound 48] | – | – | > 8 µM | > 8 µM
3 | Ac-SLEQVNKINKKIDKIEESLKKIEESDKKSLEVNKKLEAAAKK-NH2 [Compound 47] | – | – | > 8 µM | > 8 µM
4 | CC[C@H](C)[C@H](NC(=O)[C@H](CCC(=O)O)NC(=O)[C@H](CCC(=O)O)NC(=O)[C@H](CC(C)C)NC(=O)[C@H](CO)NC(=O)[C@H](CCC(=O)O)NC(=O)[C@H](CCC(=O)O)NC(=O)[C@@H](NC(=O)[C@H](CCCCN)NC(=O)[C@H](CCC(=O)O)NC(=O)[C@H](CC(N)=O)NC(=O)[C@@H](NC(=O)[C@H](CCC(N)=O)NC(=O)[C@H](CC(N)=O)NC(=O)[C@@H](NC(=O)[C@H](CCCCN)NC(=O)[C@H](CCC(N)=O)NC(=O)[C@H](CC(N)=O)NC(=O)[C@H](Cc1ccccc1)NC(=O)[C@H](CCC(=O)O)NC(=O)[C@H](C)NC(=O)[C@H](Cc1ccccc1)NC(C)=O)[C@@H](C)CC)C(C)C)[C@@H](C)CC)C(=O)N[C@@H](CCCNC(=N)N)C(=O)N[C@@H](CCCCN)C(=O)N[C@@H](CO)C(=O)N[C@@H](CC(=O)O)C(=O)N[C@@H](CCC(=O)O)C(=O)N[C@@H](CCC(=O)O)C(=O)N[C@@H](CC(C)C)C(=O)N[C@@H](Cc1c[nH]cn1)C(=O)N[C@@H](CC(N)=O)C(=O)N[C@H](C(=O)N[C@@H](CC(N)=O)C(=O)N[C@@H](C)C(=O)N[C@H](C(=O)N[C@H](C(N)=O)[C@@H](C)O)[C@@H](C)O)C(C)C [Compound 8] (Ac-FAEFNQKINQVNEKIEESLEEIRKSDEELHNVNATT-NH2) | > 8 µM | 3.77 µM | – | –
5 | CC[C@H](C)[C@H](NC(=O)[C@H](CCCCN)NC(=O)[C@H](CC(C)C)NC(=O)[C@H](CC(C)C)NC(=O)[C@H](CO)NC(=O)[C@H](C)NC(=O)[C@H](CC(=O)O)NC(=O)[C@H](Cc1ccccc1)NC(C)=O)C(=O)N[C@@H](CCC(=O)O)C(=O)N[C@@H](CCC(=O)O)C(=O)N[C@@H](CCC(=O)O)C(=O)N[C@@H](CCCCN)C(=O)N[C@@H](CCCCN)C(=O)N[C@@H](CCCCN)C(=O)N[C@H](C(=O)N[C@@H](CCC(=O)O)C(=O)N[C@@H](CCC(=O)O)C(=O)N[C@@H](CC(C)C)C(=O)N[C@@H](CC(C)C)C(=O)N[C@@H](CCCCN)C(=O)N[C@@H](CC(C)C)C(=O)N[C@@H](Cc1c[nH]cn1)C(=O)N[C@@H](CC(N)=O)C(=O)N[C@@H](CCC(=O)O)C(=O)N[C@@H](CO)C(=O)N[C@@H](CC(=O)O)C(=O)N[C@@H](CCCCN)C(=O)N[C@@H](CCCCN)C(=O)N[C@@H](CC(C)C)C(=O)N[C@@H](CCC(=O)O)C(=O)N[C@@H](CCC(=O)O)C(=O)N[C@H](C(N)=O)C(C)C)[C@@H](C)CC [Compound 4] (Ac-FDASLLKIEEEKKKIEELLKLHNESDKKLEEV-NH2) | – | – | > 8 µM | > 8 µM
6 | Ac-WDEFDKKIEEVNKKIEESLKKIEESDKKLEEVNKKLEAAAKK(X1)-NH2 [Compound 9] | > 8 µM | 0.0957 µM | – | –
7 | CC[C@H](C)[C@H](NC(C)=O)C(=O)N[C@@H](CC(C)C)C(=O)N[C@@H](CCC(=O)O)C(=O)N[C@@H](CC(C)C)C(=O)N[C@H](C(=O)N[C@@H](CC(N)=O)C(=O)N[C@@H](CCCCN)C(=O)N[C@@H](CCCCN)C(=O)N[C@H](C(=O)N[C@@H](CCC(=O)O)C(=O)N[C@@H](CCC(N)=O)C(=O)N[C@@H](CO)C(=O)N[C@@H](CC(C)C)C(=O)N[C@@H](CCCCN)C(=O)N[C@@H](Cc1ccccc1)C(=O)N[C@H](C(=O)N[C@@H](CCC(=O)O)C(=O)N[C@@H](CCCCN)C(=O)N[C@@H](CO)C(=O)N[C@@H](CC(=O)O)C(=O)N[C@@H](CCCCN)C(=O)N[C@@H](CC(C)C)C(=O)N[C@@H](CC(C)C)C(=O)N[C@@H](CCC(=O)O)C(=O)N[C@@H](CC(N)=O)C(=O)N[C@@H](CCC(=O)O)C(=O)N[C@@H](C)C(=O)N[C@@H](C)C(=O)N[C@@H](C)C(=O)N[C@@H](CCCCN)C(=O)N[C@@H](CCCCNC(=O)CCC(=O)OC1CCC2(C)C(=CCC3C2CCC2(C)C(C(C)CCCC(C)C)CCC32)C1)C(N)=O)[C@@H](C)CC)[C@@H](C)CC)C(C)C (stereo partly drawn) [Compound 32] (Ac-ILELVNKKIEQSLKFIEKSDKLLENEAAAKK(X1)-NH2) | > 8 µM | 0.296 µM | – | –
8 | Ac-FDFDEFDASISQVNEKINESLAFIRLAFIRKSDELLEAAAKK-NH2 [Compound 24] | > 8 µM | 2.65 µM | – | –
9 | CC[C@H](C)[C@H](NC(=O)[C@H](CCC(=O)O)NC(=O)[C@H](CCC(=O)O)NC(=O)[C@H](CC(C)C)NC(=O)[C@H](CO)NC(=O)[C@H](CCC(N)=O)NC(=O)[C@H](CC(N)=O)NC(=O)[C@@H](NC(=O)[C@H](CCCCN)NC(=O)[C@H](CC(C)C)NC(=O)[C@H](CO)NC(=O)[C@H](CCC(N)=O)NC(=O)[C@H](CCC(=O)O)NC(=O)[C@@H](NC(=O)[C@H](CCCCN)NC(=O)[C@H](CCCCN)NC(=O)[C@H](CC(N)=O)NC(=O)[C@@H](NC(=O)[C@H](CCC(=O)O)NC(=O)[C@H](CCC(=O)O)NC(=O)[C@H](CC(=O)O)NC(=O)[C@H](Cc1ccccc1)NC(C)=O)C(C)C)[C@@H](C)CC)[C@@H](C)CC)C(=O)N[C@@H](CCCNC(=N)N)C(=O)N[C@@H](CCCCN)C(=O)N[C@@H](CO)C(=O)N[C@@H](CCC(=O)O)C(=O)N[C@@H](C)C(=O)N[C@@H](C)C(=O)N[C@@H](C)C(=O)N[C@@H](CCCCN)C(=O)N[C@@H](CCCCNC(=O)CCC(=O)OC1CCC2(C)C(=CCC3C2CCC2(C)C(C(C)CCCC(C)C)CCC32)C1)C(N)=O (stereo partly drawn) [Compound 34] (Ac-FDEEVNKKIEQSLKINQSLEEIRKSEAAAKK(X1)-NH2) | 1.5 µM | > 2 µM | – | –
